Assay results published in patent US10239869B2, “Sulfonamide compounds as voltage-gated sodium channel modulators” (LUPIN LIMITED, priority 2015, dated 2019).
Read-outs that look alike come from different tables or passages of the source.

Experiments:
Nav 1.7 = Nav 1.7 (Homo sapiens (Human), UniProt Q15858); assay: Inhibition of sodium channels, Red Membrane Potential Dye FLIPR assay, veratridine depolarization; format: cell-based; conditions: HEK-293 cells overexpressing the channel; for IC50: read-out: Nav1.7 IC50
Nav 1.5 = Nav 1.5 (Homo sapiens (Human), UniProt Q14524); assay: as above; format: cell-based; conditions: HEK-293 cells overexpressing the channel; for inhibition at 10 µM: HEK-293 cells overexpressing Nav 1.5
[1] = read-out: Nav1.5 IC50 (bound given in μM)

Nav 1.5, sequence (Q14524 whole entry): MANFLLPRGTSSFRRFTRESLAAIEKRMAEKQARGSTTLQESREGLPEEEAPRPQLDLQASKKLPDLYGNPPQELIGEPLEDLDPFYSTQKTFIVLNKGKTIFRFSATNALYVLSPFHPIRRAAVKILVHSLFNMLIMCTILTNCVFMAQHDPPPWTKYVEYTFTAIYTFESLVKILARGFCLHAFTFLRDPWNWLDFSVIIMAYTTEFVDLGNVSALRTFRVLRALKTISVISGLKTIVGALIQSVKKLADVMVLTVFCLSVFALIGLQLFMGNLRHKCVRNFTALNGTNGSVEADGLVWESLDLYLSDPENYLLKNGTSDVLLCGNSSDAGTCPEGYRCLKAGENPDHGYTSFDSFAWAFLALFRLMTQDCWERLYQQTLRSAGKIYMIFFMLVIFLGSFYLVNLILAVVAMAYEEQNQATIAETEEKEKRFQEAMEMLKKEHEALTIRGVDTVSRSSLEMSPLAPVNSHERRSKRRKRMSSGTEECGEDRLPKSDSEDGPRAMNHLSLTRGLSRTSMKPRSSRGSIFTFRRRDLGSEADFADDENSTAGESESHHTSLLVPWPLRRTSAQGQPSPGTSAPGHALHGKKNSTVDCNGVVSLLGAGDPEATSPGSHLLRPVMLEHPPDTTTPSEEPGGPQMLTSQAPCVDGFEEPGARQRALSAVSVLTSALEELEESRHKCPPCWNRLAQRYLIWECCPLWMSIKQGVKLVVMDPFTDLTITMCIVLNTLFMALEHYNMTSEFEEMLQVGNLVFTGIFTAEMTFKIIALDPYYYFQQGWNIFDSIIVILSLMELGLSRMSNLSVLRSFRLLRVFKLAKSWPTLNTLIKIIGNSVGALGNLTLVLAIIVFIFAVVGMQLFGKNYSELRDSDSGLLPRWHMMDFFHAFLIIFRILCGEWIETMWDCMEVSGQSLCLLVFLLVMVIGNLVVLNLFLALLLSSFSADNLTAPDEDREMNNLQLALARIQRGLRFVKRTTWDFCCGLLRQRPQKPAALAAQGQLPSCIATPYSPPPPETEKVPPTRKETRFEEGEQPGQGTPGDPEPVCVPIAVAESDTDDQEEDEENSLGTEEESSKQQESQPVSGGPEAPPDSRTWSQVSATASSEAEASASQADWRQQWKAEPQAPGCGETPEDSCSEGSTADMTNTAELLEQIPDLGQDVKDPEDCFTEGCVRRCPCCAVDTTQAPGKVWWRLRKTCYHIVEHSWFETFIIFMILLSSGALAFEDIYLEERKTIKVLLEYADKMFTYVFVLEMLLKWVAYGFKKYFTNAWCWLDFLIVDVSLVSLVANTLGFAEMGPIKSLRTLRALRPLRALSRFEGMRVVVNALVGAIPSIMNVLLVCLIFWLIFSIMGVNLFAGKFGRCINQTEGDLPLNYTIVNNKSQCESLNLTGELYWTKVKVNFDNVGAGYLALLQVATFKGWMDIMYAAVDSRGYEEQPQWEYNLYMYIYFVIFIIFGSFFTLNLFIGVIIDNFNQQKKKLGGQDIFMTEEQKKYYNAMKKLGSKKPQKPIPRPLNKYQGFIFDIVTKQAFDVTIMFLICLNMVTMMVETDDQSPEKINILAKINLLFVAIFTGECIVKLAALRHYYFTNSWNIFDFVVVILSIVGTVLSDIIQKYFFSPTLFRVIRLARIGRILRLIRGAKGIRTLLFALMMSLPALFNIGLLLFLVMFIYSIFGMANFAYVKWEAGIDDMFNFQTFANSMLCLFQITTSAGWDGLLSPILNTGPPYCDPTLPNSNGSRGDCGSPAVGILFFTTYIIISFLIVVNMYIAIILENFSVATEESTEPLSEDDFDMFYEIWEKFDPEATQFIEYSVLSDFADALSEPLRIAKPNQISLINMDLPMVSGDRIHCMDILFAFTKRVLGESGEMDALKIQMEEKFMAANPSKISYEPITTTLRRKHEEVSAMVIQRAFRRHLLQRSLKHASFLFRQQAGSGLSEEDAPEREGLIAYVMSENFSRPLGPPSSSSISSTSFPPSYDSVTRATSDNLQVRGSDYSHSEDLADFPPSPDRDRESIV
Nav 1.7, sequence (Q15858 whole entry): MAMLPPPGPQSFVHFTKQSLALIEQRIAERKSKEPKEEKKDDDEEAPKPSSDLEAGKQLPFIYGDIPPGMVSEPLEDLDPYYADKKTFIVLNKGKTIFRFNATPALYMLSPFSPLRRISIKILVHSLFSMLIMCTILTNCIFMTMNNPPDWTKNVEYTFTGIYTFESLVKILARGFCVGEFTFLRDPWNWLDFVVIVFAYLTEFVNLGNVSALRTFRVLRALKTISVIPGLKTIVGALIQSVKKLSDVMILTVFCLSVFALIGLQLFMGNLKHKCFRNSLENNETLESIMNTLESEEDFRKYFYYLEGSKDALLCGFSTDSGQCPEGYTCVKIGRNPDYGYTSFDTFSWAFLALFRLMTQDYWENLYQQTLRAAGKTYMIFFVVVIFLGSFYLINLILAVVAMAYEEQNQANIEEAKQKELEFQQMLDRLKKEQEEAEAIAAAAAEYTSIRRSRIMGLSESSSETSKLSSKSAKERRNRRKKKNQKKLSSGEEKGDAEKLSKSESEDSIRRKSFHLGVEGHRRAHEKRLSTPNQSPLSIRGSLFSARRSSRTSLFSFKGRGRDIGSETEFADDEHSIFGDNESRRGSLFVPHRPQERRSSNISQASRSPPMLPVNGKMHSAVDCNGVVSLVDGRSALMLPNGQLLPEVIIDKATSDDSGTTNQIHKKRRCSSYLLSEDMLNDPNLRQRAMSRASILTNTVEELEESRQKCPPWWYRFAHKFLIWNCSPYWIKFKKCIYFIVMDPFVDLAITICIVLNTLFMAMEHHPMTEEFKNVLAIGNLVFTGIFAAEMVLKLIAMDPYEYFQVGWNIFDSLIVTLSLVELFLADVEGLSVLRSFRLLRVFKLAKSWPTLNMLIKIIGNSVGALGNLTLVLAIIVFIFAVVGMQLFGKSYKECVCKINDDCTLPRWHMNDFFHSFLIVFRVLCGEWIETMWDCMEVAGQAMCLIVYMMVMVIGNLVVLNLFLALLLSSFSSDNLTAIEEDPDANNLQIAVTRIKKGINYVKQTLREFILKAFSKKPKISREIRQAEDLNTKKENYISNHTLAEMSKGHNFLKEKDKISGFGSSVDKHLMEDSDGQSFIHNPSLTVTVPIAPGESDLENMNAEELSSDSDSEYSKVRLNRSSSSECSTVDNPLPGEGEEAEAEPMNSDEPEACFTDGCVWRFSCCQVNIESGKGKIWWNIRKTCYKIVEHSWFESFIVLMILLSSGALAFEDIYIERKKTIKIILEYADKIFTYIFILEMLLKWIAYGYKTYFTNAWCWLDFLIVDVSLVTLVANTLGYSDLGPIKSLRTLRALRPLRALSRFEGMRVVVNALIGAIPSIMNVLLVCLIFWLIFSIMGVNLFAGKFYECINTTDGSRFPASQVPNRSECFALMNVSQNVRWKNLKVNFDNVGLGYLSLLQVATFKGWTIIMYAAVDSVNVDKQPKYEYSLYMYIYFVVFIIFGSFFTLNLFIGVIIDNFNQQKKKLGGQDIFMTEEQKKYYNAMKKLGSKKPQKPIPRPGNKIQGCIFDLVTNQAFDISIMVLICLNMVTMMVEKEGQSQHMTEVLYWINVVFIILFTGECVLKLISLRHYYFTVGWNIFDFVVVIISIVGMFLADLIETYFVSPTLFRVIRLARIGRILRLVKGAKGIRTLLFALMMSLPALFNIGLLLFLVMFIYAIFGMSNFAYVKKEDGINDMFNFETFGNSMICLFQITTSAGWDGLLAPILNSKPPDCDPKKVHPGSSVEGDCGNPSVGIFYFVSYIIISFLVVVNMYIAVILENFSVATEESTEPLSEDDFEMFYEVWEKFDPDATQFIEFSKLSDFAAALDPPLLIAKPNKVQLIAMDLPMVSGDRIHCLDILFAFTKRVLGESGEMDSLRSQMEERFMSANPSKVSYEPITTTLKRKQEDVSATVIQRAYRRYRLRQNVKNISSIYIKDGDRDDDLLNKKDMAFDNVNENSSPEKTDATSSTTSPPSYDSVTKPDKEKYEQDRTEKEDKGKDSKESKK

In the case of `Cc1ccc(NS(=O)(=O)c2ccc3c(c2)OCC[C@@H]3c2ccc(C(F)(F)F)cc2-c2ccnn2C)nc1` [Example 22, (S&R)-4-(2-(1-methyl-1H-pyrazol-5-yl)-4-(trifluoromethyl)phenyl)-N-(5-methylpyridin-2-yl)chroman-7-sulfonamide], the IC50 (Nav 1.7) is reported as 2060 nM and the “Nav1.5 % inhibition @ 10 μM” value (Nav 1.5) is reported as 74%.
Compound `O=S(=O)(Nc1ncccn1)c1ccc2c(c1)OCC[C@@H]2c1ccc(C(F)(F)F)cc1CCCF` (racemic) [Example 158, (R/S)-4-(2-(3-fluoropropyl)-4-(trifluoromethyl)phenyl)-N-(pyrimidin-2-yl)chroman-7-sulfonamide] has an IC50 (Nav 1.7) of 130 nM and an IC50 (Nav 1.5; read-out: Nav1.5 IC50) of 0.505 µM.
`Cc1nc(-c2cc(C(F)(F)F)ccc2[C@@H]2CCOc3cc(S(=O)(=O)Nc4cccnn4)ccc32)co1` [Example 79, (S&R)-4-(2-(2-methyloxazol-4-yl)-4-(trifluoromethyl)phenyl)-N-(pyridazin-3-yl)chroman-7-sulfonamide] was tested, and the IC50 (Nav 1.7) was 2520 nM and the IC50 (Nav 1.5; [1]) was > 10 µM.
`COCCCCc1cc(C(F)(F)F)ccc1[C@H]1CCOc2cc(S(=O)(=O)Nc3cccc(F)n3)ccc21` [Example 152, (S&R)—N-(6-fluoropyridin-2-yl)-4-(2-(4-methoxybutyl)-4-(trifluoromethyl)phenyl)chroman-7-sulfonamide] was tested, and the IC50 (Nav 1.7) was 40 nM and the “Nav1.5 % inhibition @ 10 μM” value (Nav 1.5) was 67%.
With `O=S(=O)(Nc1ccncn1)c1ccc2c(c1)OCC[C@@H]2c1ccc(C(F)(F)F)cc1CCC(F)F` (racemic) [Example-213, (R/S)-4-(2-(3,3-difluoropropyl)-4-(trifluoromethyl)phenyl)-N-(pyrimidin-4-yl)chroman-7-sulfonamide] the IC50 (Nav 1.7) was 34 nM and the inhibition at 10 µM (Nav 1.5) was 65%.
With `O=S(=O)(Nc1ncccn1)c1ccc2c(c1)OCC[C@H]2c1ccc(C(F)(F)F)cc1OC1COC1` [Example-216, (R&S)-4-(2-(oxetan-3-yloxy)-4-(trifluoromethyl)phenyl)-N-(pyrimidin-2-yl)chroman-7-sulfonamide] the IC50 (Nav 1.7) was 2730 nM and the IC50 (Nav 1.5; [1]) was > 10 µM.
Work on `O=S(=O)(Nc1ncccn1)c1ccc2c(c1)OCC[C@@H]2c1ccc(C(F)(F)F)cc1C1CCOCC1` [Example 110, (S&R)—N-(pyrimidin-2-yl)-4-(2-(tetrahydro-2H-pyran-4-yl)-4-(trifluoromethyl)phenyl)chroman-7-sulfonamide] yielded an IC50 (Nav 1.7) of 156 nM and an IC50 (Nav 1.5; read-out: Nav1.5 IC50) of 1.75 µM.
In the case of `CS(=O)(=O)CCc1cc(C(F)(F)F)ccc1[C@H]1CCOc2cc(S(=O)(=O)Nc3cccc(F)n3)ccc21` [Example 82, (S&R)—N-(6-Fluoropyridin-2-yl)-4-(2-(2-(methylsulfonyl)ethyl)-4-(trifluoromethyl)phenyl)chroman-7-sulfonamide], the IC50 (Nav 1.7) is reported as 20 nM and the IC50 (Nav 1.5; [1]) is reported as > 10 µM.
Compound `COCCCc1cc(C(F)(F)F)ccc1[C@H]1CCOc2cc(S(=O)(=O)Nc3cccnn3)ccc21` (racemic) [Example 144, (R/S)-4-(2-(3-methoxypropyl)-4-(trifluoromethyl)phenyl)-N-(pyridazin-3-yl)chroman-7-sulfonamide] has an IC50 (Nav 1.7) of 86 nM and an IC50 (Nav 1.5; read-out: Nav1.5 IC50) of 2.68 µM.
For `O=S(=O)(Nc1cccnn1)c1ccc2c(c1)OCC[C@@H]2c1ccc(C(F)(F)F)cc1-c1nccs1` (racemic) [Example 95, (R/S)—N-(pyridazin-3-yl)-4-(2-(thiazol-2-yl)-4-(trifluoromethyl)phenyl)chroman-7-sulfonamide], the IC50 (Nav 1.7) was 11 nM and the inhibition at 10 µM (Nav 1.5) was 74%.
Compound `Cc1ccc(-c2cc(C(F)(F)F)ccc2[C@H]2CCOc3cc(S(=O)(=O)Nc4cccnn4)ccc32)cn1` (stereo in doubt) [Example-205, (R/S)-4-(2-(6-methylpyridin-3-yl)-4-(trifluoromethyl)phenyl)-N-(pyridazin-3-yl)chroman-7-sulfonamide] has an IC50 (Nav 1.7) of 8 nM and an IC50 (Nav 1.5; read-out: Nav1.5 IC50) of 0.25 µM.
With `O=S(=O)(Nc1ncccn1)c1ccc2c(c1)OCCC2c1ccc(C(F)(F)F)cc1O[C@H]1CCOC1` (stereo partly drawn) [Example-178, (R&S)—N-(pyrimidin-2-yl)-4-(2-(((S)-tetrahydrofuran-3-yl)oxy)-4-(trifluoromethyl)phenyl)chroman-7-sulfonamide] the IC50 (Nav 1.7) was 149 nM and the IC50 (Nav 1.5; [1]) was > 10 µM.
`O=S(=O)(Nc1cccc(F)n1)c1ccc2c(c1)OCCC2c1ccc(C(F)(F)F)cc1O[C@H]1CCOC1` (stereo partly drawn) [Example-180, (R&S)—N-(6-fluoropyridin-2-yl)-4-(2-(((S)-tetrahydrofuran-3-yl)oxy)-4-(trifluoromethyl)phenyl)chroman-7-sulfonamide] was tested, and the IC50 (Nav 1.7) was 831 nM and the IC50 (Nav 1.5; [1]) was > 10 µM.
For `COCCCOc1cc(C(F)(F)F)ccc1[C@H]1CCOc2cc(S(=O)(=O)Nc3ncccn3)ccc21` [Example 131, (S&R)-4-(2-(3-methoxypropoxy)-4-(trifluoromethyl)phenyl)-N-(pyrimidin-2-yl)chroman-7-sulfonamide], the IC50 (Nav 1.7) was 53 nM and the “Nav1.5 % inhibition @ 10 μM” value (Nav 1.5) was 66%.
`O=S(=O)(Nc1ncc(F)cn1)c1ccc2c(c1)OCC[C@H]2c1ccc(C(F)(F)F)cc1OC1CCOCC1` [Example-170, (R&S)—N-(5-fluoropyrimidin-2-yl)-4-(2-((tetrahydro-2H-pyran-4-yl)oxy)-4-(trifluoromethyl)phenyl)chroman-7-sulfonamide] was tested, and the IC50 (Nav 1.7) was 1090 nM and the IC50 (Nav 1.5; [1]) was > 10 µM.
`O=S(=O)(Nc1cccc(F)n1)c1ccc2c(c1)OCC[C@@H]2c1ccc(C(F)(F)F)cc1OC1CCOCC1` [Example-177, (R&S)—N-(6-fluoropyridin-2-yl)-4-(2-((tetrahydro-2H-pyran-4-yl)oxy)-4-(trifluoromethyl)phenyl)chroman-7-sulfonamide] was tested, and the IC50 (Nav 1.7) was 11 nM and the IC50 (Nav 1.5; read-out: Nav1.5 IC50) was 0.232 µM.
`COCCc1cc(C(F)(F)F)ccc1[C@H]1CCOc2cc(S(=O)(=O)Nc3ncc(F)cn3)ccc21` (racemic) [Example 136, (R/S)—N-(5-fluoropyrimidin-2-yl)-4-(2-(2-methoxyethyl)-4-(trifluoromethyl)phenyl)chroman-7-sulfonamide] was tested, and the IC50 (Nav 1.7) was 655 nM and the inhibition at 10 µM (Nav 1.5) was 33%.
`CC(C)Oc1cccc(NS(=O)(=O)c2ccc3c(c2)OCC[C@@H]3c2ccc(C(F)(F)F)cc2-c2ccnn2C)n1` [Example 26, (S&R)—N-(6-isopropoxypyridin-2-yl)-4-(2-(1-methyl-1H-pyrazol-5-yl)-4-(trifluoromethyl)phenyl)chroman-7-sulfonamide] was tested, and the IC50 (Nav 1.7) was 685 nM and the IC50 (Nav 1.5; [1]) was > 10 µM.
`Cc1nc(-c2cc(C(F)(F)F)ccc2[C@H]2CCOc3cc(S(=O)(=O)Nc4ccncn4)ccc32)cs1` [Example 68, (S&R)-4-(2-(2-Methylthiazol-4-yl)-4-(trifluoromethyl)phenyl)-N-(pyrimidin-4-yl)chroman-7-sulfonamide] was tested, and the IC50 (Nav 1.7) was 0.9 nM and the “Nav1.5 % inhibition @ 10 μM” value (Nav 1.5) was 29%.
In the case of `Cn1nccc1-c1cc(C(F)(F)F)ccc1[C@@H]1CCOc2cc(S(=O)(=O)Nc3cnccn3)ccc21` [Example 11, (S&R)-4-(2-(1-Methyl-1H-pyrazol-5-yl)-4-(trifluoromethyl)phenyl)-N-(pyrazin-2-yl) chromane-7-sulfonamide], the “Nav1.7 inhibition @ 10 μM” value (Nav 1.7; 10 μM) is reported as 96% and the IC50 (Nav 1.5; [1]) is reported as > 10 µM.
`O=S(=O)(Nc1ncc(F)cn1)c1ccc2c(c1)OCC[C@@H]2c1ccc(C(F)(F)F)cc1CCC(F)F` (racemic) [Example-212, (R/S)-4-(2-(3,3-difluoropropyl)-4-(trifluoromethyl)phenyl)-N-(5-fluoropyrimidin-2-yl)chroman-7-sulfonamide] was tested, and the IC50 (Nav 1.7) was 18 nM and the IC50 (Nav 1.5; [1]) was > 10 µM.
With `CCOc1ccc(-c2cc(C(F)(F)F)ccc2[C@@H]2CCOc3cc(S(=O)(=O)Nc4ncc(F)cn4)ccc32)cn1` [Example 101, (S&R)-4-(2-(6-ethoxypyridin-3-yl)-4-(trifluoromethyl)phenyl)-N-(5-fluoropyrimidin-2-yl)chroman-7-sulfonamide] the IC50 (Nav 1.7) was 2590 nM and the “Nav1.5 % inhibition @ 10 μM” value (Nav 1.5) was 51%.
In the case of `O=S(=O)(Nc1ccncn1)c1ccc2c(c1)OCC[C@@H]2c1ccc(C(F)(F)F)cc1Cl` (racemic) [Example 106, (S/R)-4-(2-Chloro-4-(trifluoromethyl)phenyl)-N-(pyrimidin-4-yl)chroman-7-sulfonamide], the IC50 (Nav 1.7) is reported as 147 nM and the IC50 (Nav 1.5; [1]) is reported as > 10 µM.
`O=S(=O)(Nc1cccnn1)c1ccc2c(c1)OCC[C@@H]2c1ccc(C(F)(F)F)cc1Cl` (racemic) [Example 107, (S/R)-4-(2-Chloro-4-(trifluoromethyl)phenyl)-N-(pyridazin-3-yl)chroman-7-sulfonamide] was tested, and the IC50 (Nav 1.7) was 229 nM and the IC50 (Nav 1.5; [1]) was > 10 µM.
`COCCCCc1cc(C(F)(F)F)ccc1[C@@H]1CCOc2cc(S(=O)(=O)Nc3cccc(F)n3)ccc21` [Example 151, (S&R)—N-(6-fluoropyridin-2-yl)-4-(2-(4-methoxybutyl)-4-(trifluoromethyl)phenyl)chroman-7-sulfonamide] was tested, and the IC50 (Nav 1.7) was 390 nM and the “Nav1.5 % inhibition @ 10 μM” value (Nav 1.5) was 57%.
`O=S(=O)(Nc1ncccn1)c1ccc2c(c1)OCC[C@@H]2c1ccc(C(F)(F)F)cc1CCC(F)F` (racemic) [Example-211, (R/S)-4-(2-(3,3-difluoropropyl)-4-(trifluoromethyl)phenyl)-N-(pyrimidin-2-yl)chroman-7-sulfonamide] was tested, and the IC50 (Nav 1.7) was 7 nM and the IC50 (Nav 1.5; read-out: Nav1.5 IC50) was 0.777 µM.
With `COCCCc1cc(C(F)(F)F)ccc1[C@@H]1CCOc2cc(S(=O)(=O)Nc3ncccn3)ccc21` [Example 140, (S&R)-4-(2-(3-methoxypropyl)-4-(trifluoromethyl)phenyl)-N-(pyrimidin-2-yl)chroman-7-sulfonamide] the IC50 (Nav 1.7) was 1740 nM and the IC50 (Nav 1.5; [1]) was > 10 µM.
For `O=C1COCCN1c1cc(C(F)(F)F)ccc1[C@@H]1CCOc2cc(S(=O)(=O)Nc3ncccn3)ccc21` [Example-230, (S&R)-4-(2-(3-oxomorpholino)-4-(trifluoromethyl)phenyl)-N-(pyrimidin-2-yl)chroman-7-sulfonamide], the IC50 (Nav 1.7) was 4420 nM and the IC50 (Nav 1.5; [1]) was > 10 µM.
With `O=C1CCCN1c1cc(C(F)(F)F)ccc1[C@H]1CCOc2cc(S(=O)(=O)Nc3cccnn3)ccc21` (racemic) [Example 117, (R/S)-4-(2-(2-oxopyrrolidin-1-yl)-4-(trifluoromethyl)phenyl)-N-(pyridazin-3-yl)chromane-7-sulfonamide] the IC50 (Nav 1.7) was 106 nM and the IC50 (Nav 1.5; [1]) was > 10 µM.
